Assay results as given in PubChem BioAssay AID248 (DTP/NCI, 2004).
Toxic doses and inconclusive results are not listed. Rule as the data show it: active = T/C of 150% or more; inactive = T/C below 125%.

System: L1210 leukemia ip in BDF1 mice, survival T/C
Test: NCI In Vivo Anticancer Drug Screen. Data for tumor model L1210 Leukemia (intraperitoneal) in B6D2F1 (BDF1) mice
Conditions: endpoint: mean survival time, higher = longer survival
How it was run: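 Tumor cells were implanted, animals were treated, and survival was followed. The result divides the treated measurement by the vehicle-control measurement.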

[1] = dose: 100.0 mg/kg/injection, schedule: Q01DX001 (ip), vehicle: saline
[2] = dose: 200.0 mg/kg/injection, schedule: Q01DX001 (ip), vehicle: saline
[3] = dose: 400.0 mg/kg/injection, schedule: Q01DX001 (ip), vehicle: saline
[4] = dose: 50.0 mg/kg/injection, schedule: Q01DX001 (ip), vehicle: saline
[5] = dose: 100.0 mg/kg/injection, schedule: Q01DX001 (ip), vehicle: carboxymethylcellulose (CMC)
[6] = dose: 200.0 mg/kg/injection, schedule: Q01DX001 (ip), vehicle: carboxymethylcellulose (CMC)
[7] = dose: 400.0 mg/kg/injection, schedule: Q01DX001 (ip), vehicle: carboxymethylcellulose (CMC)
[8] = dose: 100.0 mg/kg/injection, schedule: Q04DX003 (ip), vehicle: saline with Tween-80
[9] = dose: 200.0 mg/kg/injection, schedule: Q04DX003 (ip), vehicle: saline with Tween-80
[10] = dose: 400.0 mg/kg/injection, schedule: Q04DX003 (ip), vehicle: saline with Tween-80
[11] = dose: 100.0 mg/kg/injection, schedule: Q04DX003 (ip), vehicle: saline
[12] = dose: 200.0 mg/kg/injection, schedule: Q04DX003 (ip), vehicle: saline
[13] = dose: 100.0 mg/kg/injection, schedule: Q01DX009 (ip), vehicle: saline with Tween-80
[14] = dose: 200.0 mg/kg/injection, schedule: Q01DX009 (ip), vehicle: saline with Tween-80
[15] = dose: 100.0 mg/kg/injection, schedule: Q01DX009 (ip), vehicle: Klucel (hydroxypropylcellulose) (HPC)
[16] = dose: 200.0 mg/kg/injection, schedule: Q01DX009 (ip), vehicle: Klucel (hydroxypropylcellulose) (HPC)
[17] = dose: 400.0 mg/kg/injection, schedule: Q01DX009 (ip), vehicle: Klucel (hydroxypropylcellulose) (HPC)

Measured: T/C

O=C(COc1ccc([N+](=O)[O-])cc1)Nc1ccc(S(=O)(=O)F)cc1
inactive: [1] 103 % of control | [2] 107 % of control | [3] 103 % of control

O=[N+]([O-])/C(N=Nc1ccc(Br)cc1)=N\Nc1ccc(Br)cc1
inactive: dose: 75.0 mg/kg/injection, schedule: Q01DX001 (ip), vehicle: acetone 87 % of control | dose: 150.0 mg/kg/injection, schedule: Q01DX001 (ip), vehicle: acetone 89 % of control

NS(=O)(=O)c1ccc(N2CCCCC2)c([N+](=O)[O-])c1
inactive: dose: 100.0 mg/kg/injection, schedule: Q01DX005 (ip), vehicle: other 105 % of control | dose: 200.0 mg/kg/injection, schedule: Q01DX005 (ip), vehicle: other 94 % of control | dose: 400.0 mg/kg/injection, schedule: Q01DX005 (ip), vehicle: other 108 % of control

C=C1C(=O)N(C)C(C(=O)OC)CC1C(CC)C(=O)OC (centres undefined)
inactive: dose: 25.0 mg/kg/injection, schedule: Q01DX001 (ip), vehicle: saline 104 % of control | [4] 114 % of control | [1] 95 % of control | [2] 108 % of control

Nc1nc2c(c(=O)[nH]1)N1CN(c3ccc(C(=O)NC(CCC(=O)O)C(=O)O)cc3)CCC1CN2 (centres undefined)
inactive: dose: 1.0 mg/kg/injection, schedule: Q01DX009 (ip), vehicle: saline 94 % of control | dose: 2.0 mg/kg/injection, schedule: Q01DX009 (ip), vehicle: saline 100 % of control | dose: 4.0 mg/kg/injection, schedule: Q01DX009 (ip), vehicle: saline 89 % of control | dose: 4.0 mg/kg/injection, schedule: Q04DX003 (ip), vehicle: saline 94 % of control | dose: 8.0 mg/kg/injection, schedule: Q01DX009 (ip), vehicle: saline 100 % of control | dose: 8.0 mg/kg/injection, schedule: Q04DX003 (ip), vehicle: saline 109 % of control | dose: 16.0 mg/kg/injection, schedule: Q01DX009 (ip), vehicle: saline 94 % of control | dose: 16.0 mg/kg/injection, schedule: Q04DX003 (ip), vehicle: saline 87 % of control | dose: 32.0 mg/kg/injection, schedule: Q04DX003 (ip), vehicle: saline 101 % of control | dose: 64.0 mg/kg/injection, schedule: Q04DX003 (ip), vehicle: saline 95 % of control

CCOC(=O)CCCc1ccc(N=NN(C)C(C)CC)cc1 (centres undefined)
inactive: [5] 111 % of control | [6] 102 % of control | [7] 107 % of control

O=C1Oc2ccccc2C1c1ccccc1 (centres undefined)
inactive: dose: 87.5 mg/kg/injection, schedule: Q01DX009 (ip), vehicle: other 103 % of control | dose: 175.0 mg/kg/injection, schedule: Q01DX009 (ip), vehicle: other 108 % of control | dose: 350.0 mg/kg/injection, schedule: Q01DX009 (ip), vehicle: other 106 % of control

OB(O)c1ccc(F)cc1
inactive: dose: 100.0 mg/kg/injection, schedule: Q04DX003 (ip), vehicle: acetone 101 % of control | dose: 200.0 mg/kg/injection, schedule: Q04DX003 (ip), vehicle: acetone 98 % of control | dose: 400.0 mg/kg/injection, schedule: Q04DX003 (ip), vehicle: acetone 97 % of control

Cc1nccc2ccsc12
inactive: dose: 75.0 mg/kg/injection, schedule: Q01DX001 (ip), vehicle: other 105 % of control | dose: 150.0 mg/kg/injection, schedule: Q01DX001 (ip), vehicle: other 102 % of control

Cc1ccc(S(N)(=O)=O)cc1
inactive: [8] 98 % of control | [9] 98 % of control | [10] 96 % of control

CCOC(=O)/C=C(/CC(=O)OCC)Nc1ccc(C)cc1
inactive: [1] 89 % of control | [2] 99 % of control | [3] 97 % of control

CCC(=O)OC1(c2ccccc2)CCN(CCC(O)c2ccccc2)CC1 (centres undefined)
inactive: dose: 3.13 mg/kg/injection, schedule: Q01DX009 (ip), vehicle: Klucel (hydroxypropylcellulose) (HPC) 98 % of control | dose: 6.25 mg/kg/injection, schedule: Q01DX009 (ip), vehicle: Klucel (hydroxypropylcellulose) (HPC) 104 % of control | dose: 12.5 mg/kg/injection, schedule: Q01DX009 (ip), vehicle: Klucel (hydroxypropylcellulose) (HPC) 95 % of control | dose: 25.0 mg/kg/injection, schedule: Q01DX009 (ip), vehicle: Klucel (hydroxypropylcellulose) (HPC) 94 % of control

Nc1ccc(S(=O)(=O)CCCl)cc1
inactive: dose: 100.0 mg/kg/injection, schedule: Q04DX002 (ip), vehicle: Klucel (hydroxypropylcellulose) (HPC) 89 % of control | dose: 200.0 mg/kg/injection, schedule: Q04DX002 (ip), vehicle: Klucel (hydroxypropylcellulose) (HPC) 100 % of control | dose: 400.0 mg/kg/injection, schedule: Q04DX002 (ip), vehicle: Klucel (hydroxypropylcellulose) (HPC) 100 % of control

O=[N+]([O-])/C=C/c1ccc(Br)cc1
inactive: dose: 75.0 mg/kg/injection, schedule: Q01DX001 (ip), vehicle: saline 95 % of control

C#CC(OC(=O)c1cc([N+](=O)[O-])cc([N+](=O)[O-])c1)C1OC(C)(C)OC1C1COC(C)(C)O1 (centres undefined)
inactive: [5] 106 % of control | [6] 106 % of control | [7] 106 % of control

COc1ccc(NC(=S)Nc2ccccn2)cc1
inactive: dose: 100.0 mg/kg/injection, schedule: Q01DX009 (ip), vehicle: other 106 % of control | [11] 101 % of control | dose: 200.0 mg/kg/injection, schedule: Q01DX009 (ip), vehicle: other 97 % of control | [12] 87 % of control | dose: 400.0 mg/kg/injection, schedule: Q01DX009 (ip), vehicle: other 103 % of control | dose: 400.0 mg/kg/injection, schedule: Q04DX003 (ip), vehicle: saline 98 % of control

NC(CCc1c[nH]c(=O)[nH]c1=O)C(=O)O (centres undefined)
inactive: [4] 104 % of control | [1] 100 % of control | [2] 98 % of control | [3] 110 % of control

CSC(=S)NCC(=O)O
inactive: dose: 50.0 mg/kg/injection, schedule: Q01DX009 (ip), vehicle: saline with Tween-80 89 % of control | [13] 89 % of control | [14] 101 % of control

c1ccc(CCSCCCSCCc2ccccn2)nc1
inactive: dose: 50.0 mg/kg/injection, schedule: Q04DX002 (ip), vehicle: saline 98 % of control | dose: 100.0 mg/kg/injection, schedule: Q04DX002 (ip), vehicle: saline 98 % of control | dose: 200.0 mg/kg/injection, schedule: Q04DX002 (ip), vehicle: saline 92 % of control | dose: 400.0 mg/kg/injection, schedule: Q04DX002 (ip), vehicle: saline 95 % of control

CCN(CC)CC(=O)NCC(CC)(CCN1CCOCC1)c1cccc2ccccc12 (centres undefined)
inactive: [11] 97 % of control | [12] 95 % of control

COC(=O)C1CC2OC2C(C)C1C(=O)OC (centres undefined)
inactive: [15] 95 % of control | [16] 103 % of control | [17] 105 % of control

CC1=NN(c2cccc([N+](=O)[O-])c2)C(=O)C1
inactive: dose: 100.0 mg/kg/injection, schedule: Q01DX001 (ip), vehicle: saline with Tween-80 96 % of control | dose: 200.0 mg/kg/injection, schedule: Q01DX001 (ip), vehicle: saline with Tween-80 96 % of control | dose: 400.0 mg/kg/injection, schedule: Q01DX001 (ip), vehicle: saline with Tween-80 98 % of control

CCOC(=O)C(CC)C1=CCCCC1 (centres undefined)
inactive: [13] 97 % of control | [8] 91 % of control | [14] 103 % of control | [9] 99 % of control | [10] 91 % of control

O=C(CNC(=O)c1ccccc1)Nc1ccccc1
inactive: [1] 105 % of control | [2] 97 % of control | [3] 97 % of control

CCOC(=O)c1cc(C(=O)OC)[nH]c(=O)c1C#N
inactive: [15] 93 % of control | dose: 100.0 mg/kg/injection, schedule: Q04DX003 (ip), vehicle: Klucel (hydroxypropylcellulose) (HPC) 92 % of control | [16] 92 % of control | dose: 200.0 mg/kg/injection, schedule: Q04DX003 (ip), vehicle: Klucel (hydroxypropylcellulose) (HPC) 92 % of control | [17] 90 % of control | dose: 400.0 mg/kg/injection, schedule: Q04DX003 (ip), vehicle: Klucel (hydroxypropylcellulose) (HPC) 88 % of control
